Test results published in patent US20240252488A1 (KOREA RESEARCH INSTITUTE OF CHEMICAL TECHNOLOGY, priority 2020, published 2024).
Counter-ions that a name gives are not always drawn.

Columns and labels:
[1] = biological target: T1, MLKL (Homo sapiens, UniProt Q8NB16); assay: Measurement of binding affinity with MLKL receptor (competitive binding assay, Kd); parameters: made in house; host or cells: HEK 293 cell line (T7 phage in E. coli BL21-derived host is also described)
T1 sequence (Q8NB16 1-471): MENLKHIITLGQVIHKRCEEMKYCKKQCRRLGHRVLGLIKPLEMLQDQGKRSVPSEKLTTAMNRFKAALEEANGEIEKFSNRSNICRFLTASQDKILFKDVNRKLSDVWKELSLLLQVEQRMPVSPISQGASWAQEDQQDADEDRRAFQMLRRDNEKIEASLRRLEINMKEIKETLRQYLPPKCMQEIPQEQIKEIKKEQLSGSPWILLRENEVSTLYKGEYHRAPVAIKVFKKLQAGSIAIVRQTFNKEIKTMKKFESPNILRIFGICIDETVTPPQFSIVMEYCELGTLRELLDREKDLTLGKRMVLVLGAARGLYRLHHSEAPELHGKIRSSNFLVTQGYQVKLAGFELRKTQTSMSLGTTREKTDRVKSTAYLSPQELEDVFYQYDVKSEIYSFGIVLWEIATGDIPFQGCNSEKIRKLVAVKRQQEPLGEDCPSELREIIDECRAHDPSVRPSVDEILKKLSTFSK
Method: Measurement of Binding Affinity with MLKL Receptor (Competitive Binding Assay)
The binding affinity was evaluated by measuring the Kd value in the following method.
To prepare kinase-tagged T7 phage strains in an E. coli host derived from the BL21 strain, E. coli were grown to log-phase and infected with T7 phage and incubated with shaking at 32° C. until lysis. The lysates were centrifuged and filtered to remove cell debris. For kinase production, it was expressed in human embryonic kidney cell line (HEK 293 cell line), and subsequently tagged with DNA for qPCR detection.
The liganded beads were blocked with excess biotin and washed with blocking buffer (SeaBlock (Pierce), 1% BSA, 0.05% Tween 20, 1 mM DTT) to remove unbound ligand and to reduce non-specific binding. […] Test compounds were prepared as 111× stocks in 100% DMSO.
The compounds were then diluted directly into the assays such that the final concentration of DMSO was 0.9%. All reactions performed in polypropylene 384-well plate. Each was a final volume of 0.02 ml. […] The kinase concentration in the eluates was measured by qPCR.

[2] = tested on: FADD−/− Jurkat cells; assay: Necroptosis inhibition assay, TNF-α-induced necroptosis (CellTiter-Glo 2.0); type: cell-based, human; conditions: TNF-α 15 ng/mL; for Necroptosis inhibition assay (Rescue %) 1 μM: compound 1 μM; for Necroptosis inhibition assay (Rescue %) 10 μM: compound 10 μM
Method: Necroptosis Inhibition Assay
Necroptosis inhibition was evaluated by the following method.
80 μL of FADD gene-defective human T lymphocyte cells (FADD−/− Jurkat cells) were equally distributed into each well at 5.0×10^5 cells/mL in a white 96-well plate with a transparent bottom. 20 μL of the medium containing test compound was treated in each well so that the final concentration of the compound was 0.1, 1, and 10 μM, and reacted at room temperature for 30 minutes. After the 30-minute reaction was over, TNF (tumor necrosis factor)-α was treated in the corresponding well so that the final concentration of TNF-α was 15 ng/mL in order to induce necroptosis. It was cultured in a 5% CO2, 37° C. incubator for 20 to 24 hours.
After incubation, the 96-well plate was left at room temperature for 30 minutes. After 30 minutes, Promega's CellTiter-Glo 2.0 reagent was diluted 1:3 with PBS and 100 μL of the diluted solution was added to each well to confirm cell viability by measuring the amount of ATP. After the treatment, the plate was shielded from light and incubated at room temperature for 2 minutes with orbital shaking, and then left at room temperature for 10 minutes without shaking. After measuring the luminescence at 0.5 seconds per well using a plate scanner, the cytotoxicity and necroptosis inhibition rate for the compound were calculated using the measured values.

Kd [1]	SMILES	Necroptosis inhibition assay (Rescue %) 1 μM [2]	Necroptosis inhibition assay (Rescue %) 10 μM [2]
0.82 nM	Cc1ccc(NC(=O)[C@H](OC(=O)c2nc(-c3cnn(C4CCNCC4)c3)cnc2N)c2ccccc2)cc1 [TDH-319, (R)-2-oxo-1-phenyl-2-(p-tolylamino)ethyl 3-amino-6-(1-(piperidin-4-yl)-1H-pyrazol-4-yl)pyrazine-2-carboxylate hydrochloride]	–	–
1.7 nM	Cc1ccc([C@@H](OC(=O)c2nc(-c3cnn(C4CCNCC4)c3)cnc2N)C(=O)Nc2ccc(F)cc2)cc1 [TDH-320, (R)-2-((4-fluorophenyl)amino)-2-oxo-1-(p-tolyl)ethyl 3-amino-6-(1-(piperidin-4-yl)-1H-pyrazol-4-yl)pyrazine-2-carboxylate hydrochloride]	–	–
1.1 nM	CC(=O)N1CCC(n2cc(-c3cnc(N)c(C(=O)O[C@@H](C(=O)Nc4ccc(F)cc4)c4ccc(Cl)cc4)n3)cn2)CC1 [TDH-325, (R)-1-(4-chlorophenyl)-2-((4-fluorophenyl)amino)-2-oxoethyl 6-(1-(1-acetylpiperidin-4-yl)-1H-pyrazol-4-yl)-3-aminopyrazine-2-carboxylate]	–	–
5.1 nM	CC1CCC(NC(=O)[C@H](OC(=O)c2nc(-c3cnn(C4CCNCC4)c3)cnc2N)c2ccccc2)CC1 (stereo partly drawn) [TDH-424, (R)-2-((4-methylcyclohexyl)amino)-2-oxo-1-phenylethyl 3-amino-6-(1-(piperidin-4-yl)-1H-pyrazol-4-yl)pyrazine-2-carboxylate hydrochloride]	–	–
6.5 nM	Nc1ncc(-c2cnn(C3CCNCC3)c2)nc1C(=O)O[C@@H](C(=O)Nc1ccc(C(F)(F)F)cc1)c1ccccc1 [TDH-459, (R)-2-oxo-1-phenyl-2-((4-(trifluoromethyl)phenyl)amino)ethyl 3-amino-6-(1-(piperidin-4-yl)-1H-pyrazol-4-yl)pyrazine-2-carboxylate hydrochloride]	–	–
0.35 nM	Nc1ncc(-c2cnn(C3CCNCC3)c2)nc1C(=O)O[C@@H](C(=O)Nc1ccccc1)c1ccccc1 [TDH-463, (R)-2-oxo-1-phenyl-2-(phenylamino)ethyl 3-amino-6-(1-(piperidin-4-yl)-1H-pyrazol-4-yl)pyrazine-2-carboxylate hydrochloride]	–	–
1.7 nM	Nc1ncc(-c2cnn(C3CCNCC3)c2)nc1C(=O)O[C@@H](C(=O)Nc1cccnc1)c1ccccc1 [TDH-468, (R)-2-oxo-1-phenyl-2-(pyridin-3-ylamino)ethyl 3-amino-6-(1-(piperidin-4-yl)-1H-pyrazol-4-yl)pyrazine-2-carboxylate hydrochloride]	–	–
3.8 nM	CN(C)c1ccc(NC(=O)[C@H](OC(=O)c2nc(-c3cnn(C4CCNCC4)c3)cnc2N)c2ccccc2)cc1 [TDH-470, (R)-2-((4-(dimethylamino)phenyl)amino)-2-oxo-1-phenylethyl 3-amino-6-(1-(piperidin-4-yl)-1H-pyrazol-4-yl)pyrazine-2-carboxylate hydrochloride]	–	–
5.6 nM	Nc1ncc(-c2cnn(C3CCNCC3)c2)nc1C(=O)O[C@@H](C(=O)Nc1ccncc1)c1ccccc1 [TDH-479, (R)-2-oxo-1-phenyl-2-(pyridin-4-ylamino)ethyl 3-amino-6-(1-(piperidin-4-yl)-1H-pyrazol-4-yl)pyrazine-2-carboxylate--2,2,2-trifluoroacetaldehyde]	–	–
1.2 nM	Nc1ncc(-c2cnn(C3CCNCC3)c2)nc1C(=O)OC(C(=O)Nc1ccc(F)cc1)c1ccc(F)cc1 (stereo not drawn) [TDH-489, 1-(4-fluorophenyl)-2-((4-fluorophenyl)amino)-2-oxoethyl 3-amino-6-(1-(piperidin-4-yl)-1H-pyrazol-4-yl)pyrazine-2-carboxylate hydrochloride]	–	–
400 nM	CN(C(=O)c1nc(-c2cnn(C3CCNCC3)c2)cnc1N)[C@@H](C(=O)Nc1ccc(F)cc1)c1ccccc1 [TDH-490, (R)-3-amino-N-(2-((4-fluorophenyl)amino)-2-oxo-1-phenylethyl)-N-methyl-6-(1-(piperidin-4-yl)-1H-pyrazol-4-yl)pyrazine-2-carboxamide hydrochloride]	–	–

More lines, now with the values behind:

SMILES	Kd [1]	Necroptosis inhibition assay (Rescue %) 1 μM [2]	Necroptosis inhibition assay (Rescue %) 10 μM [2]
Nc1nccnc1C(=O)O[C@H](C(=O)Nc1ccc(F)cc1)c1ccccc1 [TDH-002, (S)-2-((4-fluorophenyl)amino)-2-oxo-1-phenylethyl 3-aminopyrazine-2-carboxylate]	> 10000 nM	6.35%	–
Nc1ncc(C2=CCN(C(=O)CCCCCNC(=O)CNc3ccc4c(c3)C(=O)N(C3CCC(=O)NC3=O)C4=O)CC2)cc1C(=O)O[C@@H](C(=O)Nc1ccc(F)cc1)c1ccccc1 (stereo partly drawn) [TDH-072, (R)-2-((4-fluorophenyl)amino)-2-oxo-1-phenylethyl 6-amino-1′-(6-(2-((2-(2,6-dioxopiperidin-3-yl)-1,3-dioxoisoindolin-5-yl)amino)acetamido)hexanoyl)-1′,2′,3′,6′-tetrahydro-[3,4′-bipyridine]-5-carboxylate]	30 nM	12.25%	1.53%
Nc1ncc(C2=CCN(C(=O)CCCCCNc3cccc4c3C(=O)N(C3CCC(=O)NC3=O)C4=O)CC2)cc1C(=O)O[C@@H](C(=O)Nc1ccc(F)cc1)c1ccccc1 (stereo partly drawn) [TDH-073, (R)-2-((4-fluorophenyl)amino)-2-oxo-1-phenylethyl 6-amino-1′-(6-((2-(2,6-dioxopiperidin-3-yl)-1,3-dioxoisoindolin-4-yl)amino)hexanoyl)-1′,2′,3′,6′-tetrahydro-[3,4′-bipyridine]-5-carboxylate]	210 nM	–	3.26%
Nc1ncc(C2=CCN(C(=O)CCCCCNC(=O)C3CCN(c4ccc5c(c4)C(=O)N(C4CCC(=O)NC4=O)C5=O)CC3)CC2)cc1C(=O)O[C@@H](C(=O)Nc1ccc(F)cc1)c1ccccc1 (stereo partly drawn) [TDH-074, (R)-2-((4-fluorophenyl)amino)-2-oxo-1-phenylethyl 6-amino-1′-(6-(1-(2-(2,6-dioxopiperidin-3-yl)-1,3-dioxoisoindolin-5-yl)piperidine-4-carboxamido)hexanoyl)-1′,2′,3′,6′-tetrahydro-[3,4′-bipyridine]-5-carboxylate]	74 nM	14.54%	3.61%
Nc1ncc(C2=CCN(C(=O)CCCCCNc3ccc4c(c3)C(=O)N(C3CCC(=O)NC3=O)C4=O)CC2)cc1C(=O)O[C@@H](C(=O)Nc1ccc(F)cc1)c1ccccc1 (stereo partly drawn) [TDH-075, (R)-2-((4-fluorophenyl)amino)-2-oxo-1-phenylethyl 6-amino-1′-(6-((2-(2,6-dioxopiperidin-3-yl)-1,3-dioxoisoindolin-5-yl)amino)hexanoyl)-1′,2′,3′,6′-tetrahydro-[3,4′-bipyridine]-5-carboxylate]	140 nM	10.02%	9.05%
CC(=O)N1CC[C@H](n2cc(-c3cnc(N)c(C(=O)OC(C(=O)Nc4ccc(F)cc4)c4ccccc4)n3)cn2)C1 (stereo partly drawn) [TDH-228, 2-((4-fluorophenyl)amino)-2-oxo-1-phenylethyl 6-(1-((S)-1-acetylpyrrolidin-3-yl)-1H-pyrazol-4-yl)-3-aminopyrazine-2-carboxylate]	1.2 nM	–	–
CC(=O)N1CC[C@@H](n2cc(-c3cnc(N)c(C(=O)OC(C(=O)Nc4ccc(F)cc4)c4ccccc4)n3)cn2)C1 (stereo partly drawn) [TDH-229, 2-((4-fluorophenyl)amino)-2-oxo-1-phenylethyl 6-(1-((R)-1-acetylpyrrolidin-3-yl)-1H-pyrazol-4-yl)-3-aminopyrazine-2-carboxylate]	1.1 nM	–	–
Nc1ncc(-c2cnn(C3CCNCC3)c2)nc1C(=O)O[C@@H](C(=O)Nc1ccc(F)cc1)c1cccc(Cl)c1 [hydrochloride]	2 nM	–	–
